Laboratory results as given in paper PMC7714071, “Interaction of amyloid beta with humanin and acetylcholinesterase is modulated by ATP” (FEBS Open Bio, 2020).

What was measured:
[1] = test system: HN-Aβ complex (H1299 cell-conditioned media); experiment: ELISA, HN found in a complex with Aβ in H1299 cell-conditioned media; format: binding, human; details: ATP 100 μM, 1 mM; increased levels, compared with A549 media; Fig. 5C,D
Method: Human NSCLC cell lines, A549 (ATCC CCL‐185) and H1299 (ATCC CRL‐5803), were purchased from the American Type Culture Collection (ATCC, Manassas, VA, USA). Cells were seeded as we reported earlier in 5 mL HyClone Dulbecco's modified Eagle's medium/nutrient mixture F‐12 (DMEM/F12) (GE Healthcare Life Sciences, Pittsburgh, PA, USA), supplemented with 10% Fetalgro bovine growth serum (FBS; RMBIO, Missoula, MT, USA), 50 U·mL^−1 penicillin, and […] streptomycin (Invitrogen, Life Technologies, Carlsbad, CA, USA) in 25‐cm^2 tissue culture flasks, and allowed to grow overnight in an incubator at 37 °C, 95% humidity, and 5% CO2. The cells were counted after trypan blue staining, with a hemocytometer.
ELISAs were carried out as we previously reported. […] TBST was then used to wash the wells 4× before proceeding in one of two ways: (a) biotinylated samples were analyzed by adding 100 µL streptavidin–HRP conjugate in TBST (1 : 2500 dilution) to the samples followed by incubation for 3 h at RT on a shaker, or (b) samples without biotin were analyzed by adding 100 µL TBST containing the primary antibody as per the manufacturer's recommendation, incubating for 3 h at RT on a shaker, followed by washing the wells 4× with TBST. […] The reaction was stopped with 100 µL 2 M H2SO4 after incubating at RT for 0.5–15 min, resulting in a yellow color change, measured by absorbance at 450 nm. […]

[2] = test system: Aβ40; experiment: ELISA, binding of biotinylated-HN to immobilised Aβ40; details: Aβ 100 nM on wells, biotinylated-HN 300 nM, increasing HS; three independent assays; Fig. 2B
Method: ELISAs were carried out as we previously reported. Nunc MaxiSorp 96‐well flat bottom plate (Thermo Fisher) wells were coated with samples as indicated. The plates were incubated overnight at 4 °C on a shaker to allow binding of the samples to the plate wells. After the incubation, the wells were washed 4× with TBST, filled with 400 µL blocking buffer (110 mM KCl, 5 mM NaHCO3, 5 mM MgCl2, 1 mM EGTA, 0.1 mM CaCl2, 20 mM HEPES, 1% BSA, pH 7.4), and incubated with shaking overnight at 4 °C. The wells were then washed 4× with TBST, and 100 µL of sample at the desired concentration was added to each well and incubated with shaking overnight at 4 °C. TBST was then used to wash the wells 4× before proceeding in one of two ways: (a) biotinylated samples were analyzed by adding 100 µL streptavidin–HRP conjugate in TBST (1 : 2500 dilution) to the samples followed by incubation for 3 h at RT on a shaker, or (b) samples without biotin were analyzed by adding 100 µL TBST containing the primary antibody as per the manufacturer's recommendation, incubating for 3 h at RT on a shaker, followed by washing the wells 4× with TBST. […] The reaction was stopped with 100 µL 2 M H2SO4 after incubating at RT for 0.5–15 min, resulting in a yellow color change, measured by absorbance at 450 nm. […] Statistical analysis was determined by the […] […] Data were expressed as the mean ± SD. […]

| Molecule | levels of HN bound to Aβ in the presence of ATP [1] | effect of HS on binding of HN to Aβ40 [2] |
| --- | --- | --- |
| Nc1ncnc2c1ncn2[C@@H]1O[C@H](COP(=O)(O)OP(=O)(O)OP(=O)(O)O)[C@@H](O)[C@H]1O [ATP, Adenosine triphosphate] | also comparable |  |
| heparan sulfate [HS] |  | No effects |
